Usually EC50 stands for the concentration needed to bring the measured effect to its halfway point.

For one test, the target named is CFTR-mediated chloride transport in human intestinal epithelial enteroid cells (Homo sapiens, UniProt P13569). Description: Membrane potential dye, Enteroid Assay A. To be noted: Enteroid Assay A. It counts as cell-based. Summed up: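 Membrane potential dye (20 μM methyl oxonol, with 30 μM CaCCinh-A01 and 30 μM Chicago Sky Blue) loaded 25 min at room temperature into ROCK-inhibitor-seeded human enteroid cells. Chloride-free stimulation buffer triggered transport, followed by 15 min fluorescence. % Activity relative to 3 μM/3 μM/300 nM triple-combination control.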
Chain of CFTR-mediated chloride transport in human intestinal epithelial enteroid cells (P13569 with tags, fused parts or gaps DEL508-508): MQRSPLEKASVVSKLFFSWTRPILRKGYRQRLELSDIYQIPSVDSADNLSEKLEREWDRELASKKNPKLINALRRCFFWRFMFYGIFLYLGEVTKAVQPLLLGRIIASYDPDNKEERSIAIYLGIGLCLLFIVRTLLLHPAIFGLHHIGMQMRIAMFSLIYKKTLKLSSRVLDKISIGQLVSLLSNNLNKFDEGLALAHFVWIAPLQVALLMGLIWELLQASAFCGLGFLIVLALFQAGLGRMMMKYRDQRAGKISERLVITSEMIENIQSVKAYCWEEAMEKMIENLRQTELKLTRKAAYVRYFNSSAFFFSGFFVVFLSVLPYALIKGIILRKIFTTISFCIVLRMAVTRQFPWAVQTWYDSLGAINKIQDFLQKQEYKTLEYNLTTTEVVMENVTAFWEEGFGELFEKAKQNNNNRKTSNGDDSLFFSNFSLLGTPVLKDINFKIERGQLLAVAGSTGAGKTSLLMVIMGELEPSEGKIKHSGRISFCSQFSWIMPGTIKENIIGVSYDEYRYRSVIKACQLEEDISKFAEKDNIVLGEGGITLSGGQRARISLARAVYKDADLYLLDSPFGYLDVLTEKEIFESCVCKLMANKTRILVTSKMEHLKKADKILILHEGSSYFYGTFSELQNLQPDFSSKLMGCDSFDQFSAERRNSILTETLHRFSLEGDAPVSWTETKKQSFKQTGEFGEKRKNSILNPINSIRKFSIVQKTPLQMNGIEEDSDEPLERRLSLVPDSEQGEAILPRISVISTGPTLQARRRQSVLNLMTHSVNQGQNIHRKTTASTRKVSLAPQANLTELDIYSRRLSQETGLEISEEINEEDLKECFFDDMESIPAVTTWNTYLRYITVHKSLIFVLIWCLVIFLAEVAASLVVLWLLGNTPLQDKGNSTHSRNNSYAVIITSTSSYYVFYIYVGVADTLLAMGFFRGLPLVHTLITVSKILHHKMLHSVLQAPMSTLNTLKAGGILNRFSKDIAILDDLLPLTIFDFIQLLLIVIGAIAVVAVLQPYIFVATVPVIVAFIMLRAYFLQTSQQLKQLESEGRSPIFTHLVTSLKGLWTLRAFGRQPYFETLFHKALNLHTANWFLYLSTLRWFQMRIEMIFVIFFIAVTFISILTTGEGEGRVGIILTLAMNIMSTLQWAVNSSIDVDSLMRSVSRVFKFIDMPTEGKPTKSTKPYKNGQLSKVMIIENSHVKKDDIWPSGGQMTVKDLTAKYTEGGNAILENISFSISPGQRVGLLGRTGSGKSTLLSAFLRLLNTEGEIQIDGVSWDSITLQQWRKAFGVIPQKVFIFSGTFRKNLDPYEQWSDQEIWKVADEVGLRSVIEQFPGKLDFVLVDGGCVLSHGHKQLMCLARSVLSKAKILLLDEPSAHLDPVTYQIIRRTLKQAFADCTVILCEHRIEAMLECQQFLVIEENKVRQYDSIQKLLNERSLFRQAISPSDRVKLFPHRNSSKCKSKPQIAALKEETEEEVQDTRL
For the compound `Cc1cccc(C)c1-c1cc2nc(n1)NS(=O)(=O)N1CCc3ccc(cc31)C(=O)N1Cc3ccccc3[C@@H](O2)[C@H]1CC(C)C` [Compound 249], the “Ent. A Max Activity (%)” value is “++ (++ is 30-60%)”.
For `Cc1cccc(C)c1-c1cc2nc(n1)NS(=O)(=O)N1CCc3ccc(cc31)C(=O)N1Cc3ccccc3[C@@H](O2)[C@H]1CC(C)C` [Compound 250], the “Ent. A Max Activity (%)” value is “++ (++ is 30-60%)”.

The test is the same for the next values; noted with them: Enteroid Assay A; read-out: Ent. A EC50.
Consider `Cc1cccc(C)c1-c1cc2nc(n1)NS(=O)(=O)N1CCc3ccc(cc31)C(=O)N1Cc3ccccc3[C@@H](O2)[C@H]1CC(C)C` [Compound 249], for which the EC50 is less than 1 µM.
Take `Cc1cccc(C)c1-c1cc2nc(n1)NS(=O)(=O)N1CCc3ccc(cc31)C(=O)N1Cc3ccccc3[C@@H](O2)[C@H]1CC(C)C` [Compound 250]: the EC50 was 1 to 3 µM.

Staying with this test, now noted: enteroid cells incubated with test compound 18-24 hours; acute 10 μM forskolin and 300 nM N-[2,4-bis(1,1-dimethylethyl)-5-hydroxyphenyl]-1,4-dihydro-4-oxoquinoline-3-carboxamide; read-out: Ent. A EC50.
As to `COC(=O)C1CC2CN(C1)C(=O)Nc1cccc(c1)S(=O)(=O)Nc1nc(cc(-c3c(C)cccc3C)n1)O2` (centres unmarked) [Compound 252], the EC50 was in the range of 1 to 3 µM.
With `Cc1cccc(C)c1-c1cc2nc(n1)NS(=O)(=O)c1cccc(c1)C(=O)N1CC(C)(C)OCC1CO2` (centres unmarked) [Compound 254], the EC50 lay within 1 to 3 µM.
Take `Cc1cccc(C)c1-c1cc2nc(n1)NS(=O)(=O)c1cccc(c1)C(=O)N1CCN(C(=O)CC3CCCCC3)C[C@@H]1CO2` [Compound 255]: the EC50 was less than 1 µM.
Turning to `Cc1cccc(C)c1-c1cc2nc(n1)NS(=O)(=O)c1cccc(c1)C(=O)N1CCN(CC3CCOC(C)(C)C3)C[C@@H]1CO2` (some centres unmarked) [Compound 256], the EC50 is less than 1 µM.
Consider `Cc1cccc(C)c1-c1cc2nc(n1)NS(=O)(=O)c1cccc(c1)C(=O)N1CCN(CC3(NC(=O)OC(C)(C)C)CCCC3)C[C@@H]1CO2` [Compound 257], for which the EC50 is less than 1 µM.
`Cc1cccc(C)c1-c1cc2nc(n1)NS(=O)(=O)c1cccc(c1)C(=O)N1CCN(C(=O)N3CCCCC3)C[C@@H]1CO2` [Compound 258]: the EC50 lay within 3 to 30 µM.
On the same count and under the same terms, for `CCC(CC)CN1CCN2C(=O)c3cccc(c3)S(=O)(=O)Nc3nc(cc(-c4c(C)cccc4C)n3)OC[C@H]2C1` [Compound 259] the value was less than 1 µM; for `Cc1cccc(C)c1-c1cc2nc(n1)NS(=O)(=O)c1cccc(c1)C(=O)N1CCN(CC3CCCC3)C[C@@H]1CO2` [Compound 260], less than 1 µM; for `Cc1cccc(C)c1-c1cc2nc(n1)NS(=O)(=O)c1cccc(c1)C(=O)N1CCN(CC3CC3)C[C@@H]1CO2` [Compound 262], 3 to 30 µM.
Still for that read-out and setting: then `Cc1cccc(C)c1-c1cc2nc(n1)NS(=O)(=O)c1cccc(c1)C(=O)N1CCN(CCC3CCOCC3)C[C@@H]1CO2` [Compound 263], with 3 to 30 µM; and `CNc1ccc(CN2CCN3C(=O)c4cccc(c4)S(=O)(=O)Nc4nc(cc(-c5c(C)cccc5C)n4)OC[C@H]3C2)cn1` [Compound 265], with 3 to 30 µM.
In the case of `Cc1cccc(C)c1-c1cc2nc(n1)NS(=O)(=O)c1cccc(c1)C(=O)N1CCN(Cc3ccccc3C#N)C[C@@H]1CO2` [Compound 266], the concentration for a half-maximal effect (EC50) fell in the range of 3 to 30 µM.
`Cc1cccc(C)c1-c1cc2nc(n1)NS(=O)(=O)c1cccc(c1)C(=O)N1CCN(Cc3cccc(C#N)c3)C[C@@H]1CO2` [Compound 267]: the EC50 was 1 to 3 µM.
Regarding `Cc1cccc(C)c1-c1cc2nc(n1)NS(=O)(=O)c1cccc(c1)C(=O)N1CCN(CCC(C)C)C[C@@H]1CO2` [Compound 268], the EC50 lay within 1 to 3 µM.
For `Cc1cccc(C)c1-c1cc2nc(n1)NS(=O)(=O)c1cccc(c1)C(=O)N1CCN(CC(C)C)C[C@@H]1CO2` [Compound 269], the EC50 is less than 1 µM.
`Cc1cccc(C)c1-c1cc2nc(n1)NS(=O)(=O)c1cccc(c1)C(=O)N1CCN(Cc3ccc(C#N)cc3)C[C@@H]1CO2` [Compound 270]: the 50% effective concentration (EC50) is 1 to 3 µM.
For the compound `Cc1cccc(C)c1-c1cc2nc(n1)NS(=O)(=O)c1cccc(c1)C(=O)N1CCN(Cc3ccccc3O)C[C@@H]1CO2` [Compound 271], the EC50 was less than 1 µM.
With `Cc1cccc(C)c1-c1cc2nc(n1)NS(=O)(=O)c1cccc(c1)C(=O)N1CCN(Cc3cccc(O)c3)C[C@@H]1CO2` [Compound 272], the EC50 lay in the range of 3 to 30 µM.
Take `Cc1cccc(C)c1-c1cc2nc(n1)NS(=O)(=O)c1cccc(c1)C(=O)N1CCN(Cc3ccc(O)cc3)C[C@@H]1CO2` [Compound 273]: the EC50 was 1 to 3 µM.
Same read-out and setting: then `Cc1ccc(CN2CCN3C(=O)c4cccc(c4)S(=O)(=O)Nc4nc(cc(-c5c(C)cccc5C)n4)OC[C@H]3C2)cn1` [Compound 274], with 3 to 30 µM.
As for `Cc1cccc(C)c1-c1cc2nc(n1)NS(=O)(=O)c1cccc(c1)C(=O)N1CCN(Cc3nccs3)C[C@@H]1CO2` [Compound 275], the EC50 fell in the range of 3 to 30 µM.
As to `Cc1cccc(C)c1-c1cc2nc(n1)NS(=O)(=O)c1cccc(c1)C(=O)N1CCN(Cc3cccnc3)C[C@@H]1CO2` [Compound 282], the EC50 lay within 3 to 30 µM.

The test is the same for the next values; noted with them: percentage of chloride transport of triple combination control (3 μM N-[(6-amino-2-pyridyl)sulfonyl]-6-(3-fluoro-5-isobutoxy-phenyl)-2-[(4S)-2,2,4-trimethylpyrrolidin-1-yl]pyridine-3-carboxamide based).
For `COC(=O)C1CC2CN(C1)C(=O)Nc1cccc(c1)S(=O)(=O)Nc1nc(cc(-c3c(C)cccc3C)n1)O2` (centres unmarked) [Compound 252], the “Ent. A Max Activity (%)” value is “++ (++ is 30-60%)”.
On to `Cc1cccc(C)c1-c1cc2nc(n1)NS(=O)(=O)c1cccc(c1)C1CCCCN1C(CC(C)C)CO2` (centres unmarked) [Compound 253], for which the “Ent. A Max Activity (%)” value was “+ (+ is <300%)”.
Still for that read-out and setting: then `Cc1cccc(C)c1-c1cc2nc(n1)NS(=O)(=O)c1cccc(c1)C(=O)N1CC(C)(C)OCC1CO2` (centres unmarked) [Compound 254], with “++ (++ is 30-60%)”; and `Cc1cccc(C)c1-c1cc2nc(n1)NS(=O)(=O)c1cccc(c1)C(=O)N1CCN(C(=O)CC3CCCCC3)C[C@@H]1CO2` [Compound 255], with “++ (++ is 30-60%)”.
For `Cc1cccc(C)c1-c1cc2nc(n1)NS(=O)(=O)c1cccc(c1)C(=O)N1CCN(CC3CCOC(C)(C)C3)C[C@@H]1CO2` (some centres unmarked) [Compound 256], the “Ent. A Max Activity (%)” value is recorded as “+++ (+++ is >60%)”.
For `Cc1cccc(C)c1-c1cc2nc(n1)NS(=O)(=O)c1cccc(c1)C(=O)N1CCN(CC3(NC(=O)OC(C)(C)C)CCCC3)C[C@@H]1CO2` [Compound 257], the “Ent. A Max Activity (%)” value is “+++ (+++ is >60%)”.
On to `Cc1cccc(C)c1-c1cc2nc(n1)NS(=O)(=O)c1cccc(c1)C(=O)N1CCN(C(=O)N3CCCCC3)C[C@@H]1CO2` [Compound 258], for which the “Ent. A Max Activity (%)” value is “++ (++ is 30-60%)”.
For `CCC(CC)CN1CCN2C(=O)c3cccc(c3)S(=O)(=O)Nc3nc(cc(-c4c(C)cccc4C)n3)OC[C@H]2C1` [Compound 259], the “Ent. A Max Activity (%)” value is “+++ (+++ is >60%)”.
Take `Cc1cccc(C)c1-c1cc2nc(n1)NS(=O)(=O)c1cccc(c1)C(=O)N1CCN(CC3CCCC3)C[C@@H]1CO2` [Compound 260]: the “Ent. A Max Activity (%)” value was “+++ (+++ is >60%)”.
Take `Cc1cccc(C)c1-c1cc2nc(n1)NS(=O)(=O)c1cccc(c1)C(=O)N1CCN(CC3(C)COC3)C[C@@H]1CO2` [Compound 261]: the “Ent. A Max Activity (%)” value is listed as “+ (+ is <300%)”.
Same read-out and setting: for `Cc1cccc(C)c1-c1cc2nc(n1)NS(=O)(=O)c1cccc(c1)C(=O)N1CCN(CC3CC3)C[C@@H]1CO2` [Compound 262] the value was “+++ (+++ is >60%)”.
As for `Cc1cccc(C)c1-c1cc2nc(n1)NS(=O)(=O)c1cccc(c1)C(=O)N1CCN(CCC3CCOCC3)C[C@@H]1CO2` [Compound 263], the “Ent. A Max Activity (%)” value is on record as “++ (++ is 30-60%)”.
On to `Cc1cccc(C)c1-c1cc2nc(n1)NS(=O)(=O)c1cccc(c1)C(=O)N1CCN(Cc3cnn(C(C)C)c3)C[C@@H]1CO2` [Compound 264], for which the “Ent. A Max Activity (%)” value is on record as “++ (++ is 30-60%)”.
In the case of `CNc1ccc(CN2CCN3C(=O)c4cccc(c4)S(=O)(=O)Nc4nc(cc(-c5c(C)cccc5C)n4)OC[C@H]3C2)cn1` [Compound 265], the “Ent. A Max Activity (%)” value was “++ (++ is 30-60%)”.
Same read-out and setting: for `Cc1cccc(C)c1-c1cc2nc(n1)NS(=O)(=O)c1cccc(c1)C(=O)N1CCN(Cc3ccccc3C#N)C[C@@H]1CO2` [Compound 266] the value was “+++ (+++ is >60%)”; for `Cc1cccc(C)c1-c1cc2nc(n1)NS(=O)(=O)c1cccc(c1)C(=O)N1CCN(Cc3cccc(C#N)c3)C[C@@H]1CO2` [Compound 267], “+++ (+++ is >60%)”.
For `Cc1cccc(C)c1-c1cc2nc(n1)NS(=O)(=O)c1cccc(c1)C(=O)N1CCN(CCC(C)C)C[C@@H]1CO2` [Compound 268], the “Ent. A Max Activity (%)” value is “+++ (+++ is >60%)”.
In the case of `Cc1cccc(C)c1-c1cc2nc(n1)NS(=O)(=O)c1cccc(c1)C(=O)N1CCN(CC(C)C)C[C@@H]1CO2` [Compound 269], the “Ent. A Max Activity (%)” value is given as “+++ (+++ is >60%)”.
`Cc1cccc(C)c1-c1cc2nc(n1)NS(=O)(=O)c1cccc(c1)C(=O)N1CCN(Cc3ccc(C#N)cc3)C[C@@H]1CO2` [Compound 270]: the “Ent. A Max Activity (%)” value is “+++ (+++ is >60%)”.
As to `Cc1cccc(C)c1-c1cc2nc(n1)NS(=O)(=O)c1cccc(c1)C(=O)N1CCN(Cc3ccccc3O)C[C@@H]1CO2` [Compound 271], the “Ent. A Max Activity (%)” value is “+++ (+++ is >60%)”.
Consider `Cc1cccc(C)c1-c1cc2nc(n1)NS(=O)(=O)c1cccc(c1)C(=O)N1CCN(Cc3cccc(O)c3)C[C@@H]1CO2` [Compound 272], for which the “Ent. A Max Activity (%)” value was “+++ (+++ is >60%)”.
The same measure, in the same setting: then `Cc1cccc(C)c1-c1cc2nc(n1)NS(=O)(=O)c1cccc(c1)C(=O)N1CCN(Cc3ccc(O)cc3)C[C@@H]1CO2` [Compound 273], with “++ (++ is 30-60%)”.
In the case of `Cc1ccc(CN2CCN3C(=O)c4cccc(c4)S(=O)(=O)Nc4nc(cc(-c5c(C)cccc5C)n4)OC[C@H]3C2)cn1` [Compound 274], the “Ent. A Max Activity (%)” value was “+++ (+++ is >60%)”.
On the same count and under the same terms, then `Cc1cccc(C)c1-c1cc2nc(n1)NS(=O)(=O)c1cccc(c1)C(=O)N1CCN(Cc3nccs3)C[C@@H]1CO2` [Compound 275], with “+++ (+++ is >60%)”.
With `Cc1cccc(C)c1-c1cc2nc(n1)NS(=O)(=O)c1cccc(c1)C(=O)N1CCN(Cc3cn(C)nc3C)C[C@@H]1CO2` [Compound 276], the “Ent. A Max Activity (%)” value is “++ (++ is 30-60%)”.
For the compound `Cc1cccc(C)c1-c1cc2nc(n1)NS(=O)(=O)c1cccc(c1)C(=O)N1CCN(Cc3ccc[nH]c3=O)C[C@@H]1CO2` [Compound 277], the “Ent. A Max Activity (%)” value is on record as “+ (+ is <300%)”.
Turning to `Cc1cccc(C)c1-c1cc2nc(n1)NS(=O)(=O)c1cccc(c1)C(=O)N1CCN(Cc3cncn3C)C[C@@H]1CO2` [Compound 279], the “Ent. A Max Activity (%)” value is on record as “+ (+ is <300%)”.
As for `Cc1cccc(C)c1-c1cc2nc(n1)NS(=O)(=O)c1cccc(c1)C(=O)N1CCN(Cc3ccncc3)C[C@@H]1CO2` [Compound 280], the “Ent. A Max Activity (%)” value is “++ (++ is 30-60%)”.
Turning to `Cc1cccc(C)c1-c1cc2nc(n1)NS(=O)(=O)c1cccc(c1)C(=O)N1CCN(Cc3ccccn3)C[C@@H]1CO2` [Compound 281], the “Ent. A Max Activity (%)” value is “++ (++ is 30-60%)”.
The same measure, in the same setting: then `Cc1cccc(C)c1-c1cc2nc(n1)NS(=O)(=O)c1cccc(c1)C(=O)N1CCN(Cc3cccnc3)C[C@@H]1CO2` [Compound 282], with “++ (++ is 30-60%)”.

The values are drawn from patent US20240018161A1, “MODULATORS OF CYSTIC FIBROSIS TRANSMEMBRANE CONDUCTANCE REGULATOR” (VERTEX PHARMACEUTICALS INCORPORATED, priority 2020, published 2024).
